From US20250186408A1, “TREATMENT OF PHARMACORESISTANT EPILEPSY” (Katholieke Universiteit Leuven, priority 2021, published 2025)
Read-outs that look alike come from different tables or passages of the source.

Columns and labels:
male NMRI mice = assay: Mouse 6-Hz (44 mA) psychomotor seizure model; format: in vivo; conditions: 30 min before stimulation; for dose-response relationship (in words): i.p.
Method: The antiseizure activity of compounds was investigated in the mouse 6-Hz (44 mA) psychomotor seizure model as described before (27). […] Seizure behaviour was video recorded and seizure durations were determined by blinded video analysis by experienced researchers, familiar with the different seizure characteristics. Data are expressed as mean±SD.
The 6-Hz 44 mA model is an acute model of pharmacoresistant focal impaired awareness seizures, previously referred to as complex partial or psychomotor seizures that are induced by a low frequency, long duration corneal electrical stimulation (6 Hz, 0.2 ms rectangular pulse width, 3 s duration, 44 mA). Seizures are typically characterized by a clonic phase and stereotypical automatic behaviours like stun, forelimb clonus, Straub tail and vibrissae twitching.

ADRB1 = ADRB1 (Homo sapiens, UniProt P08588); assay: cAMP ADRB1 Antagonist; format: cell-based; conditions: for Emax: read-out: Max response
Method: cAMP Hunter cell lines were expanded from freezer stocks. […] For Gi agonist determination, cells were incubated with sample in the presence of EC80 forskolin to induce response. For both conditions, media was aspirated from cells and replaced with 15 μL 2:1 HBSS/10 mM HEPES:cAMP XS+ Ab reagent. […] 5 μL of 4× sample was added to cells and incubated at 37° C. or room temperature (RT) for 30 or 60 min. Final assay vehicle concentration was 1%. […] Media was aspirated from cells and replaced with 10 μL 1:1 HBSS/HEPES:cAMP XS+ Ab reagent. […] For Gi coupled GPCRs, EC80 forskolin was included. […] Compound activity was analyzed using CBIS data analysis suite (ChemInnovation, CA).

hERG = hERG (Homo sapiens, UniProt Q12809); assay: Ion Channel hERG Blocker; format: cell-based; conditions: for Emax at 30 min: human, read-out: Max response; for IC50: read-out: RC50, result type IC50
HTR3A = molecular target: T1, HTR3A (Homo sapiens, UniProt P46098); assay: Ion Channel HTR3A Opener; format: cell-based; conditions: for Emax: Ion Channel HTR3A Opener, read-out: Max response
T1 sequence (P46098 24-478): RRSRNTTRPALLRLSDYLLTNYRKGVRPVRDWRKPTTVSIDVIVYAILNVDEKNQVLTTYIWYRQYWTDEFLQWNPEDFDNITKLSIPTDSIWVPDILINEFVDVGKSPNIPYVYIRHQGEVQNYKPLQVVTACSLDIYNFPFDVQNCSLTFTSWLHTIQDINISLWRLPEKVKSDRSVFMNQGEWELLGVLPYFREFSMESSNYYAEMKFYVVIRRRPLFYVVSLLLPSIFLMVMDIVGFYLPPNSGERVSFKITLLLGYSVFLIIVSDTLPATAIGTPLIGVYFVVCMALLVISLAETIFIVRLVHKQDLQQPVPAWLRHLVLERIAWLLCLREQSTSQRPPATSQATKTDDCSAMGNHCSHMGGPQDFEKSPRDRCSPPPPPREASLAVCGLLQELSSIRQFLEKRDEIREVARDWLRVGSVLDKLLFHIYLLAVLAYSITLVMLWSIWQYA

nAChR (a4/b2) = nAChR (a4/b2) (Homo sapiens, UniProt P17787+P43681); assay: Ion Channel nAChR (a4/b2) Opener; format: cell-based; conditions: for Emax: Ion Channel nAChR (a4/b2) Opener, read-out: Max response
DAT = molecular target: T2, DAT (Homo sapiens, UniProt Q01959); assay: Transporter DAT Blocker; format: cell-based; conditions: for Emax: Transporter DAT Blocker, read-out: Max response
T2 construct: Eurofins DiscoverX Corporation 87-1003DR; host or cells: unnamed cell lines
Method: After cell plating and incubation, media was removed an 25 μL of 1× compound in 1×HBSS/0.1% BSA was added. Compounds were incubated with cells for 30 min at 37° C. After compound incubation, 25 μL of 1× dye loading buffer (1× dye, 1×HBSS/20 mM HEPES) was added to the wells. Cells were incubated for 30-60 min at 37° C. After incubation, microplates were transferred to a PerkinElmer Envision™ instrument for fluorescent signal detection. […] For blocker mode assays, percentage of inhibition was calculated using the following formula: […]

DRD1 = DRD1 (Homo sapiens, UniProt P21728); assay: cAMP DRD1 Agonist; conditions: for Emax: read-out: Max response
Method: (§1) In vitro pharmacological profiling of compounds was done against 78 functional assays for 47 common off-targets (30) by Eurofins DiscoverX Corporation (Fremont, CA, USA) using their SAFETYscan E/IC50 ELECT service (Cat Ref 87-1003DR, Safety47 Panel Dose Response). […] Compounds were tested in a range of 10 concentrations, following a 3-fold serial dilution, starting from 10 μM. The assays were performed utilizing the PathHunter enzyme fragment complementation (EFC) technology, FLIPR®-based cellular screening assays, and KINOMEscan kinase binding assays.
(§2) cAMP Hunter cell lines were expanded from freezer stocks. Prior to testing, cells were seeded in a total volume of 20 μL into white walled 384-well microplates and incubated at 37° C. cAMP modulation was determined using the DiscoverX HitHunter cAMP XS+ assay. For Gs agonist determination, cells were incubated with sample to induce response. For Gi agonist determination, cells were incubated with sample in the presence of EC80 forskolin to induce response. For both conditions, media was aspirated from cells and replaced with 15 μL 2:1 HBSS/10 mM HEPES:cAMP XS+ Ab reagent. Intermediate dilution of sample stocks was performed to generate 4× sample in assay buffer (containing 4×EC80 forskolin in the case of antagonist determination). 5 μL of 4× sample was added to cells and incubated at 37° C. or room temperature (RT) for 30 or 60 min. Final assay vehicle concentration was 1%. For antagonist determination, cells were pre-incubated with sample followed by agonist challenge at the EC80 concentration. Media was aspirated from cells and replaced with 10 μL 1:1 HBSS/HEPES:cAMP XS+ Ab reagent. 5 μL of 4× compound was added to the cells and incubated at 37° C. or RT for 30 min. 5 μL of 4×EC80 agonist was added to the cells and incubated at 37° C. or RT for 30 or 60 min. For Gi coupled GPCRs, EC80 forskolin was included. […] Microplates were read following signal generation with a PerkinElmer Envision™ instrument for chemiluminescent signal detection. Compound activity was analyzed using CBIS data analysis suite (ChemInnovation, CA).

HTR1B = HTR1B (Homo sapiens, UniProt P28222); assay: cAMP HTR1B Agonist; conditions: for Emax: read-out: Max response
Method: (§3) In vitro pharmacological profiling of compounds was done against 78 functional assays for 47 common off-targets (30) by Eurofins DiscoverX Corporation (Fremont, CA, USA) using their SAFETYscan E/IC50 ELECT service (Cat Ref 87-1003DR, Safety47 Panel Dose Response). […] Compounds were tested in a range of 10 concentrations, following a 3-fold serial dilution, starting from 10 μM.
as §2

OPRD1 = OPRD1 (Homo sapiens, UniProt P41143); assay: cAMP OPRD1 Agonist; conditions: for Emax: read-out: Max response
Method: as §3, §2

OPRK1 = OPRK1 (Homo sapiens, UniProt P41145); assay: cAMP OPRK1 Agonist; conditions: for Emax: read-out: Max response
Method: as §3, §2

ADRA2A = molecular target: T3, ADRA2A (Homo sapiens, UniProt P08913); assay: cAMP ADRA2A Agonist; conditions: for Emax: read-out: Max response
T3 sequence (P08913 1-465): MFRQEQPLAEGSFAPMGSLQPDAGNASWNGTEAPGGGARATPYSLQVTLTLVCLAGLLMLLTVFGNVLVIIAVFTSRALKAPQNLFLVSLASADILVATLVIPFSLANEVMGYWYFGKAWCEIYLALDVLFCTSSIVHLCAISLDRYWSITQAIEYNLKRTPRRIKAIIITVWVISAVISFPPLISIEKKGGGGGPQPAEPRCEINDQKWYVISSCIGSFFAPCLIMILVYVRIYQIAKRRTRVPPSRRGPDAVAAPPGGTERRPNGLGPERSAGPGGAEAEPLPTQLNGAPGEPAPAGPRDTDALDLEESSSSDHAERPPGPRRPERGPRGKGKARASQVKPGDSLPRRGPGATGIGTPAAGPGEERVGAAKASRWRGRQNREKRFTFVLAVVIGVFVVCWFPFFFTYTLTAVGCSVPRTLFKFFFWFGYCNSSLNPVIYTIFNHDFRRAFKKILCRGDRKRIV
Method: as §1, §2

ADRA1A = molecular target: T4, ADRA1A (Homo sapiens, UniProt P35348); assay: Calcium Flux ADRA1A Agonist; conditions: for Emax: read-out: Max response
T4 sequence (P35348 1-466): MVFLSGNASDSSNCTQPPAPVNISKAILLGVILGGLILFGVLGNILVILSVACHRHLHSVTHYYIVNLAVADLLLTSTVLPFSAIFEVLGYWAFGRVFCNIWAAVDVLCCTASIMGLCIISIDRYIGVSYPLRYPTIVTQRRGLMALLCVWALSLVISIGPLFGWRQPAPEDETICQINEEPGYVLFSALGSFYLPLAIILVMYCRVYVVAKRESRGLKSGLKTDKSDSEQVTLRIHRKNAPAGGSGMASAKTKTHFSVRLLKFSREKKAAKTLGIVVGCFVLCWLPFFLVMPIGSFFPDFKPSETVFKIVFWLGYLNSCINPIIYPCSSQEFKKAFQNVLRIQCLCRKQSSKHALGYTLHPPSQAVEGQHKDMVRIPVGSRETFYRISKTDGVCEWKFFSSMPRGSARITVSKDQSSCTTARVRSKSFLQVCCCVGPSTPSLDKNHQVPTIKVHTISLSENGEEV
Method: as §1
Prior to testing, cells (10,000 cells/well) were expanded from freezer stocks and seeded into a total volume of 50 μL into black walled, clear-bottom, Poly-D-lysine coated 384-well microplates and incubated at 37° C. […] Assays were performed in 1× dye loading buffer consisting of 1× Dye (DiscoverX, Calcium No Wash^PLUS kit, Catalog No. 90-0091), 1× Additive A and 2.5 mM Probenecid in HBSS/20 mM HEPES. Probenecid was prepared fresh. Prior to testing, media was aspirated from cells and replaced with 25 μL dye loading buffer. Cells were incubated for 45 min at 37° C. and then 20 min at RT. For agonist determination, 25 μL of 2× compound in HBSS/20 mM HEPES was added using a FLIPR Tetra (MDS). For antagonist determination, cells were pre-incubated with sample followed by agonist challenge at the EC80 concentration. 25 μL of 2× sample was added and cells were incubated for 30 min at RT in the dark to equilibrate plate temperature. After incubation, antagonist determination was initiated by addition of 25 μL of 1× compound with 3×EC80 agonist using FLIPR. For both agonist and antagonist formats, activity was measure on a FLIPR Tetra (MDS). Calcium mobilization was monitored for 2 min with a 5 sec baseline read.
FLIPR read—Area under the curve, was calculated for the entire 2 min read. Compound activity was analysed using CBIS data analysis suite (ChemInnovation, CA).

Chain of nAChR (a4/b2) (P43681 29-627 limits assumed): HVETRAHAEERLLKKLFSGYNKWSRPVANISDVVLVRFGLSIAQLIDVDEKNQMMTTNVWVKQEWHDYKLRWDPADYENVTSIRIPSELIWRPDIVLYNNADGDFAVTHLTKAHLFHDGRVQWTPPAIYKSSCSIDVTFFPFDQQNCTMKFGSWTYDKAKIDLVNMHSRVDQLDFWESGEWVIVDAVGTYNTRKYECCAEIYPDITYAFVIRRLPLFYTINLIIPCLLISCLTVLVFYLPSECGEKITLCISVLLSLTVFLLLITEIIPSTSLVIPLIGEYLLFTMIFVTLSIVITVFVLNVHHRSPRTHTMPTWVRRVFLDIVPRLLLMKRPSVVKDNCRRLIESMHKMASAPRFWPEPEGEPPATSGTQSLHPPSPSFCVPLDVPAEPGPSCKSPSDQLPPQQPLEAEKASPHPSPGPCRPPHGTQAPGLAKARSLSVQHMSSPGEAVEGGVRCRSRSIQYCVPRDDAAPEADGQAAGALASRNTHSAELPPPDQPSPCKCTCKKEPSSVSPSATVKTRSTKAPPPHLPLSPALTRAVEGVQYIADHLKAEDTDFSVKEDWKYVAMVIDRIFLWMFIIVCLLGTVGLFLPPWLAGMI
Chain of nAChR (a4/b2) (P17787 26-502): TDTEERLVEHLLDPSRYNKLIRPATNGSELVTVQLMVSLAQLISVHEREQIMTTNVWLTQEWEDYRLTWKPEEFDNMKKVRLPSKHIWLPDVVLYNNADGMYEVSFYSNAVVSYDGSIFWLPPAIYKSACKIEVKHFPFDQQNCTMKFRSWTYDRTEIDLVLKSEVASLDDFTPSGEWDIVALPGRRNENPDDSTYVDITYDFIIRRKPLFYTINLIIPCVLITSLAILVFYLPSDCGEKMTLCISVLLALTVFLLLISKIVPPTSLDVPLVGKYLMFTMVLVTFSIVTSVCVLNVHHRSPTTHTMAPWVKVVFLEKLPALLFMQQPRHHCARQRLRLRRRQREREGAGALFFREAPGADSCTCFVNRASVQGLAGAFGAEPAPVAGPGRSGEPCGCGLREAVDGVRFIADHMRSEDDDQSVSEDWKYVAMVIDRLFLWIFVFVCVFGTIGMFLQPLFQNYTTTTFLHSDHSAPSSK
Chain of HTR1B (P28222 whole entry): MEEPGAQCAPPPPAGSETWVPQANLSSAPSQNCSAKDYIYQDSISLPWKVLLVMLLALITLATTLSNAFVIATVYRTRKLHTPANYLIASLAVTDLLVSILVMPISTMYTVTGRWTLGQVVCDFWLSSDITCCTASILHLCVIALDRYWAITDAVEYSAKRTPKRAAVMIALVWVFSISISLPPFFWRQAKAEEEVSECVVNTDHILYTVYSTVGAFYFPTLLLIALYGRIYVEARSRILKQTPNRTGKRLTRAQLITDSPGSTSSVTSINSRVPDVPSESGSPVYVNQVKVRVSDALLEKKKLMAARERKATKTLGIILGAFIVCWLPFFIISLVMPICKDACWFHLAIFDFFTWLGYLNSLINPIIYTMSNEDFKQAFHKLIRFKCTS
Chain of OPRD1 (P41143 whole entry): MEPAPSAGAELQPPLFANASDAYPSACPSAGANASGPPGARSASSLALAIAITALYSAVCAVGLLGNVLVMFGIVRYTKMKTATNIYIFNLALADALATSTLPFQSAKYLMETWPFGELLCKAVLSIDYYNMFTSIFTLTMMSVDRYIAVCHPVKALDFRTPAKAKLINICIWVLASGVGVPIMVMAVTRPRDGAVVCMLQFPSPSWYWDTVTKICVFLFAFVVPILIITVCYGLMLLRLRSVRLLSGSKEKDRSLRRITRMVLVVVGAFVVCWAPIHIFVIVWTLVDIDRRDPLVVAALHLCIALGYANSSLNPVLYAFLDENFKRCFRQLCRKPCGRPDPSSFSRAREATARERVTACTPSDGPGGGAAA
Chain of hERG (Q12809 whole entry): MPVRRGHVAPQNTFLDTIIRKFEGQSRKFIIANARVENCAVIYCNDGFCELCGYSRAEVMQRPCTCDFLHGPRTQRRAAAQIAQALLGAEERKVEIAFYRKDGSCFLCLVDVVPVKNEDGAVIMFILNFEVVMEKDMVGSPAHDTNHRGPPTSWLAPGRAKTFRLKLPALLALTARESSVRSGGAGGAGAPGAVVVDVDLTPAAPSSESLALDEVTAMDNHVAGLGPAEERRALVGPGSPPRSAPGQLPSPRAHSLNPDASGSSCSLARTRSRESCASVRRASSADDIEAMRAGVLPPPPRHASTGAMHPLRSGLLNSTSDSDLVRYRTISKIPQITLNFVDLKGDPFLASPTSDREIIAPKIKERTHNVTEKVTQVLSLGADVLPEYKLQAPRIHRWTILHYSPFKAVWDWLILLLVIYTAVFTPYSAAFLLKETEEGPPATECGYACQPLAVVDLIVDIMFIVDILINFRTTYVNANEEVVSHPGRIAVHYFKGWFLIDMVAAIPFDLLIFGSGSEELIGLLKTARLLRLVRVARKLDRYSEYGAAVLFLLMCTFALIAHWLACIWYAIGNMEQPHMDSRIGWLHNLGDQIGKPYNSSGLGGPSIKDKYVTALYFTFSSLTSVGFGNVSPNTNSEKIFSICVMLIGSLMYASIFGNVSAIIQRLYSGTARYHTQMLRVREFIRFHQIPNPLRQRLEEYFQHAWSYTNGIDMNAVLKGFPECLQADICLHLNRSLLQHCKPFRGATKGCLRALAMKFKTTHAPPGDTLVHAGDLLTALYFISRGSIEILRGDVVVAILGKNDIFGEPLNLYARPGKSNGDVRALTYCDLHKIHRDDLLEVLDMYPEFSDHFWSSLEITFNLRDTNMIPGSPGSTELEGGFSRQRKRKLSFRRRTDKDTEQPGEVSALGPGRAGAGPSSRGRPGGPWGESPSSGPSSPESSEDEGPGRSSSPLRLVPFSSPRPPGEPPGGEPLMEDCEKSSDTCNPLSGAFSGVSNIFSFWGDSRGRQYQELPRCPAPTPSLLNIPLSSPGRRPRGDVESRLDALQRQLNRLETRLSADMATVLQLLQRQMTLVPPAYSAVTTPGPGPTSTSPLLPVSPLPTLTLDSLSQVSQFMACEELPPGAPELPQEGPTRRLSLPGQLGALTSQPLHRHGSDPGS
Chain of OPRK1 (P41145 whole entry): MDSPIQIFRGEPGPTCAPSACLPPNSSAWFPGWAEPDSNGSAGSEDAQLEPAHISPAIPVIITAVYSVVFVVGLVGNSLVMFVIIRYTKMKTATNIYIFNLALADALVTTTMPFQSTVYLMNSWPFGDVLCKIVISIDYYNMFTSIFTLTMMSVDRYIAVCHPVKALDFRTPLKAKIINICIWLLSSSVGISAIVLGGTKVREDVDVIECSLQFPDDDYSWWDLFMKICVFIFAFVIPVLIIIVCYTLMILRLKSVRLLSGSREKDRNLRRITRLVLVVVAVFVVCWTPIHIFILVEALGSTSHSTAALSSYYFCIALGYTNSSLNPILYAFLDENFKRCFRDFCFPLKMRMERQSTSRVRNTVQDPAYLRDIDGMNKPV
Chain of ADRB1 (P08588 whole entry): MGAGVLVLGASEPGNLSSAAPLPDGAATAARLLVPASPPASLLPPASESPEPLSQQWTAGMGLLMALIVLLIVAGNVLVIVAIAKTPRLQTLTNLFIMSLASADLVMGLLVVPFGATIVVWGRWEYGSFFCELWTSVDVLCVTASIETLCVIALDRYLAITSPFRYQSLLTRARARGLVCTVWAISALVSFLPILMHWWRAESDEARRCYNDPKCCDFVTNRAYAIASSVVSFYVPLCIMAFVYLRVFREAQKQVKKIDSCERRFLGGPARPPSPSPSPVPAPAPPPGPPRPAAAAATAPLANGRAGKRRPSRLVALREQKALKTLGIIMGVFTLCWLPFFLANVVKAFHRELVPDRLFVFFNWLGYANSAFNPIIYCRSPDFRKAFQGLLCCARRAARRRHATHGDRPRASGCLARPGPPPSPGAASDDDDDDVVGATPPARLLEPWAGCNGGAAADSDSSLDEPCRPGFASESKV
Chain of DRD1 (P21728 whole entry): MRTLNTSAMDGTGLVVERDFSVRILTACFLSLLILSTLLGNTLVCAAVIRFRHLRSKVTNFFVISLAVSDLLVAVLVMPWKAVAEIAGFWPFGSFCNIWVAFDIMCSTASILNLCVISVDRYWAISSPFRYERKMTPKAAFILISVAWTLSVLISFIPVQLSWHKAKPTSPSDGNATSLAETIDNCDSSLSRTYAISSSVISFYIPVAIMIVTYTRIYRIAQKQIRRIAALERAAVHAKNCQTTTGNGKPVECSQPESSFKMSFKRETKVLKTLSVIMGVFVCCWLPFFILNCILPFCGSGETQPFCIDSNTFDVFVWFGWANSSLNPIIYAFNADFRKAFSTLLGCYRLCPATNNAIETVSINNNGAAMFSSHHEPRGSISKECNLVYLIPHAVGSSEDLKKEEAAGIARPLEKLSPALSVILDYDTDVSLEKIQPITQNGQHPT
T2 sequence (Q01959 whole entry): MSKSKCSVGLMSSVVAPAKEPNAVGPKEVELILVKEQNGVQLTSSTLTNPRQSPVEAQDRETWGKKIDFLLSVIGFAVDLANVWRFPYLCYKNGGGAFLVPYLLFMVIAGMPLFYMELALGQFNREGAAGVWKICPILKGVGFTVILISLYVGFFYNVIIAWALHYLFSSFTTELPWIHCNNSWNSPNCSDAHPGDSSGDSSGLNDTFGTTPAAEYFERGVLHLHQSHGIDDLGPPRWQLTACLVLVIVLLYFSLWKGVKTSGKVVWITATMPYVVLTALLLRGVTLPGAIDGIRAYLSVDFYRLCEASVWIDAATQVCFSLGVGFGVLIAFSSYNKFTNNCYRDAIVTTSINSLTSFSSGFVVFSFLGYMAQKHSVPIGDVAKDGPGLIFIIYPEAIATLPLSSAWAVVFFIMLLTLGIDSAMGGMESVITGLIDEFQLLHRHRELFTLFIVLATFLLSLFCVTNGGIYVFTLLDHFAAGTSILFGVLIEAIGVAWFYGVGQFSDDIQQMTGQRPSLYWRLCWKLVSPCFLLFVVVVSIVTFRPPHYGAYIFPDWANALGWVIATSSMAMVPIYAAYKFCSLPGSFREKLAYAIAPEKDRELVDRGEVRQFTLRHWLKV

SMILES | mean seizure duration (male NMRI mice; 30 mg/kg i.p.) [s] | mean seizure duration (male NMRI mice; 100 mg/kg i.p.) [s] | mean seizure duration (male NMRI mice; 200 mg/kg i.p.) [s] | mean seizure duration (male NMRI mice; 300 mg/kg i.p.) [s] | mean seizure duration (male NMRI mice; 600 mg/kg i.p.) [s] | dose-response relationship (in words) (male NMRI mice) | Emax at 30 min (hERG) [%] | IC50 (hERG) [µM] | EC50 (HTR3A) [µM] | Emax (HTR3A) [%] | EC50 (nAChR (a4/b2)) [µM] | Emax (nAChR (a4/b2)) [%] | IC50 (DAT) [µM] | Emax (DAT) [%] | EC50 (DRD1) [µM] | Emax (DRD1) [%] | EC50 (HTR1B) [µM] | Emax (HTR1B) [%] | EC50 (OPRD1) [µM] | Emax (OPRD1) [%] | other results
CC(C)(C)c1ccc(C#CC(O)c2ccccc2)cc1 (racemic) [Compound 3.3, rac-3-(4-(tert-butyl)phenyl)-1-phenylprop-2-yn-1-ol] | 9.5 | 7.7 | 1.1 | 0 | 1.00 | displayed a dose-response relationship | 3.8 | > 10 | > 10 | 0 | > 10 | 0 | > 10 | 0 | > 10 | 1.2 | > 10 | 5.2 | > 10 | 3.6 | IC50 (ADRB1): > 10 µM; Emax (ADRB1): 2.2%; EC50 (OPRK1): > 10 µM; Emax (OPRK1): 0%; EC50 (ADRA2A): > 10 µM; Emax (ADRA2A): 0%; EC50 (ADRA1A): > 10 µM; Emax (ADRA1A): 0.6%
Clc1cccc(C#Cc2n[nH]c3ncccc23)c1 [Compound 10.1, 3-((3-chlorophenyl)ethynyl)-1H-pyrazolo[3,4-b]pyridine] | 5.5 | 6.0 | 8.5 | 3.0 | 0.8 | displayed a dose-response relationship | 6.6 | > 10 | > 10 | 3.4 | > 10 | 0 | > 10 | 33.1 | > 10 | 1.3 | > 10 | 9.3 | > 10 | 12.1 | mean seizure duration (male NMRI mice; 10 mg/kg i.p.): 6.2 s; mean seizure duration (male NMRI mice; 400 mg/kg i.p.): 1.2 s; Emax (ADRB1; cAMP ADRB1 Antagonist): 40.3%; IC50 (ADRB1; cAMP ADRB1 Antagonist, read-out: RC50, result type IC50): > 10 µM; EC50 (OPRK1): > 10 µM; Emax (OPRK1): 5.4%; EC50 (ADRA2A): > 10 µM; Emax (ADRA2A): 20.7%; EC50 (ADRA1A): > 10 µM; Emax (ADRA1A): 0.6%
